Test results: PubChem BioAssay AID1963444 (Molecular Pharmacology Branch, DTP, NCI, 2024)
Values joined by “and” are separate entries in the source; they are usually repeats but may differ in a detail not shown here. Equal entries are not always repeated.

Tested on: HSSY-II complex spheroid growth, percent test/control
Experiment: Anticancer human tumor HSSY-II cell line growth inhibition [Asc];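 note: spheroids exposed to drug for 7 days before reading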
Conditions: for viability, T/C: stronger effect = lower value
How it was run: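 Complex solid-tumor spheroids incorporating human endothelial and mesenchymal stem cells received single agents or combinations over half-log dilution ranges anchored to clinical Cmax.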

[1] = curve of first compound, second compound 0.1 µM
[2] = curve of first compound, second compound 0.316 µM
[3] = curve of first compound, second compound 1 µM
[4] = curve of first compound, second compound 3.16 µM
[5] = curve of first compound, second compound 10 µM
[6] = second compound 0.1 µM, first compound 0.0316 µM
[7] = second compound 0.1 µM, first compound 0.1 µM
[8] = second compound 0.1 µM, first compound 0.316 µM
[9] = second compound 0.1 µM, first compound 1 µM
[10] = second compound 0.316 µM, first compound 0.0316 µM
[11] = second compound 0.316 µM, first compound 0.1 µM
[12] = second compound 0.316 µM, first compound 0.316 µM
[13] = second compound 0.316 µM, first compound 1 µM
[14] = second compound 1 µM, first compound 0.0316 µM
[15] = second compound 1 µM, first compound 0.1 µM
[16] = second compound 1 µM, first compound 0.316 µM
[17] = second compound 1 µM, first compound 1 µM
[18] = second compound 3.16 µM, first compound 0.0316 µM
[19] = second compound 3.16 µM, first compound 0.1 µM
[20] = second compound 3.16 µM, first compound 0.316 µM
[21] = second compound 3.16 µM, first compound 1 µM
[22] = second compound 10 µM, first compound 0.0316 µM
[23] = second compound 10 µM, first compound 0.1 µM
[24] = second compound 10 µM, first compound 0.316 µM
[25] = second compound 10 µM, first compound 1 µM

## CNC(C)C(=O)NC1CN(S(=O)(=O)c2cccc(S(=O)(=O)N3CCC4CCC(C(=O)NC(c5ccccc5)c5ccccc5)N4C(=O)C(NC(=O)C(C)NC)C3)c2)CCC2CCC(C(=O)NC(c3ccccc3)c3ccccc3)N2C1=O (centres undefined) + Cc1c(S(C)(=O)=O)c(-c2cc(F)cc(N3CCN(c4ccc(NS(=O)(=O)c5ccc(NC(CCN6CCC(C(=O)OCCCP(=O)(O)O)CC6)CSc6ccccc6)c(S(=O)(=O)C(F)(F)F)c5)cc4)CC3)c2)c(-c2ccc(Cl)cc2)n1C(C)C
[1]
  IC50: > 1000 nM
[2]
  IC50: > 1000 nM
[3]
  IC50: > 1000 nM
[4]
  IC50: > 1000 nM
[5]
  IC50: > 1000 nM
Second compound 0.1 µM, first compound 0.00316 µM
  viability, T/C: 114%
Second compound 0.1 µM, first compound 0.01 µM
  viability, T/C: 100%
[6]
  viability, T/C: 103%
[7]
  viability, T/C: 90.6%
[8]
  viability, T/C: 96.9%
[9]
  viability, T/C: 88.1%
Second compound 0.316 µM, first compound 0.00316 µM
  viability, T/C: 116%
Second compound 0.316 µM, first compound 0.01 µM
  viability, T/C: 90.5%
[10]
  viability, T/C: 90.7%
[11]
  viability, T/C: 84.7%
[12]
  viability, T/C: 103%
[13]
  viability, T/C: 86%
Second compound 1 µM, first compound 0.00316 µM
  viability, T/C: 98.7%
Second compound 1 µM, first compound 0.01 µM
  viability, T/C: 97%
[14]
  viability, T/C: 90.4%
[15]
  viability, T/C: 82%
[16]
  viability, T/C: 89.3%
[17]
  viability, T/C: 90.9%
Second compound 3.16 µM, first compound 0.00316 µM
  viability, T/C: 93.2%
Second compound 3.16 µM, first compound 0.01 µM
  viability, T/C: 94.2%
[18]
  viability, T/C: 81%
[19]
  viability, T/C: 81.5%
[20]
  viability, T/C: 71.4%
[21]
  viability, T/C: 83.3%
Second compound 10 µM, first compound 0.00316 µM
  viability, T/C: 93.2%
Second compound 10 µM, first compound 0.01 µM
  viability, T/C: 94.7%
[22]
  viability, T/C: 80.7%
[23]
  viability, T/C: 79.5%
[24]
  viability, T/C: 77.4%
[25]
  viability, T/C: 76.3%

## COc1c(OCCCN2CCOCC2)ccc2c3n(c(=NC(=O)c4cnc(N)nc4)nc12)CCN3
Compound 0.00316 µM
  viability, T/C: 91.6% and 98.3% and 96.8%
Compound 0.01 µM
  viability, T/C: 79.1% and 86.2% and 79.5%
Compound 0.0316 µM
  viability, T/C: 49.7% and 56.5% and 61.6%
Compound 0.1 µM
  viability, T/C: 32.7% and 39.2% and 46.4%
Compound 0.316 µM
  viability, T/C: 23.3% and 23.6% and 26.9%
Compound 1 µM
  viability, T/C: 13.1% and 13.5% and 11.5%
Curve of compound
  IC50: 36.8 nM and 53.1 nM and 71.8 nM

## CCN1C(C(=O)NC23CCC(C(=O)O)(CC2)CC3)C(c2cccc(Cl)c2F)C2(C(=O)Nc3cc(Cl)ccc32)C12CCCCC2 (centres undefined) + CNC(C)C(=O)NC1CN(S(=O)(=O)c2cccc(S(=O)(=O)N3CCC4CCC(C(=O)NC(c5ccccc5)c5ccccc5)N4C(=O)C(NC(=O)C(C)NC)C3)c2)CCC2CCC(C(=O)NC(c3ccccc3)c3ccccc3)N2C1=O
Curve of first compound, second compound 0.01 µM
  IC50: 88.2 nM
Curve of first compound, second compound 0.0316 µM
  IC50: 99 nM
[1]
  IC50: 81.9 nM
[2]
  IC50: 77.7 nM
[3]
  IC50: 67.7 nM
Second compound 0.01 µM, first compound 0.00949 µM
  viability, T/C: 96%
Second compound 0.01 µM, first compound 0.03 µM
  viability, T/C: 82.6%
Second compound 0.01 µM, first compound 0.0949 µM
  viability, T/C: 47.9%
Second compound 0.01 µM, first compound 0.3 µM
  viability, T/C: 14.6%
Second compound 0.01 µM, first compound 0.949 µM
  viability, T/C: 2.75%
Second compound 0.01 µM, first compound 3 µM
  viability, T/C: 0.77%
Second compound 0.0316 µM, first compound 0.00949 µM
  viability, T/C: 84.7%
Second compound 0.0316 µM, first compound 0.03 µM
  viability, T/C: 65.1%
Second compound 0.0316 µM, first compound 0.0949 µM
  viability, T/C: 55.9%
Second compound 0.0316 µM, first compound 0.3 µM
  viability, T/C: 14.8%
Second compound 0.0316 µM, first compound 0.949 µM
  viability, T/C: 1.52%
Second compound 0.0316 µM, first compound 3 µM
  viability, T/C: 0.58%
Second compound 0.1 µM, first compound 0.00949 µM
  viability, T/C: 90%
Second compound 0.1 µM, first compound 0.03 µM
  viability, T/C: 81.2%
Second compound 0.1 µM, first compound 0.0949 µM
  viability, T/C: 44.6%
Second compound 0.1 µM, first compound 0.3 µM
  viability, T/C: 13.4%
Second compound 0.1 µM, first compound 0.949 µM
  viability, T/C: 1.69%
Second compound 0.1 µM, first compound 3 µM
  viability, T/C: 0.35%
Second compound 0.316 µM, first compound 0.00949 µM
  viability, T/C: 95.7%
Second compound 0.316 µM, first compound 0.03 µM
  viability, T/C: 85.1%
Second compound 0.316 µM, first compound 0.0949 µM
  viability, T/C: 41.8%
Second compound 0.316 µM, first compound 0.3 µM
  viability, T/C: 11.2%
Second compound 0.316 µM, first compound 0.949 µM
  viability, T/C: 1%
Second compound 0.316 µM, first compound 3 µM
  viability, T/C: 0.23%
Second compound 1 µM, first compound 0.00949 µM
  viability, T/C: 82.9%
Second compound 1 µM, first compound 0.03 µM
  viability, T/C: 74.4%
Second compound 1 µM, first compound 0.0949 µM
  viability, T/C: 39.8%
Second compound 1 µM, first compound 0.3 µM
  viability, T/C: 9.04%
Second compound 1 µM, first compound 0.949 µM
  viability, T/C: 1.32%
Second compound 1 µM, first compound 3 µM
  viability, T/C: 0.3%

## C=C(F)C(=O)N1CCN(c2nc(OCC3CCCN3C)nc3c2CCN(c2cccc4cccc(Cl)c24)C3)CC1CC#N (centres undefined) + Cc1c(S(C)(=O)=O)c(-c2cc(F)cc(N3CCN(c4ccc(NS(=O)(=O)c5ccc(NC(CCN6CCC(C(=O)OCCCP(=O)(O)O)CC6)CSc6ccccc6)c(S(=O)(=O)C(F)(F)F)c5)cc4)CC3)c2)c(-c2ccc(Cl)cc2)n1C(C)C
[1]
  IC50: 1440 nM
[2]
  IC50: 1360 nM
[3]
  IC50: 1150 nM
[4]
  IC50: 1030 nM
[5]
  IC50: 997 nM
[6]
  viability, T/C: 106%
[7]
  viability, T/C: 106%
[8]
  viability, T/C: 86.7%
[9]
  viability, T/C: 72.7%
Second compound 0.1 µM, first compound 3.16 µM
  viability, T/C: 0.9%
Second compound 0.1 µM, first compound 10 µM
  viability, T/C: 0.13%
[10]
  viability, T/C: 105%
[11]
  viability, T/C: 92%
[12]
  viability, T/C: 84%
[13]
  viability, T/C: 68%
Second compound 0.316 µM, first compound 3.16 µM
  viability, T/C: 0.59%
Second compound 0.316 µM, first compound 10 µM
  viability, T/C: 0.11%
[14]
  viability, T/C: 98.4%
[15]
  viability, T/C: 97.3%
[16]
  viability, T/C: 95.6%
[17]
  viability, T/C: 57%
Second compound 1 µM, first compound 3.16 µM
  viability, T/C: 0.36%
Second compound 1 µM, first compound 10 µM
  viability, T/C: 0.12%
[18]
  viability, T/C: 104%
[19]
  viability, T/C: 98%
[20]
  viability, T/C: 97%
[21]
  viability, T/C: 51.6%
Second compound 3.16 µM, first compound 3.16 µM
  viability, T/C: 0.27%
Second compound 3.16 µM, first compound 10 µM
  viability, T/C: 0.13%
[22]
  viability, T/C: 106%
[23]
  viability, T/C: 113%
[24]
  viability, T/C: 85.3%
[25]
  viability, T/C: 55.7%
Second compound 10 µM, first compound 3.16 µM
  viability, T/C: 0.4%
Second compound 10 µM, first compound 10 µM
  viability, T/C: 0.22%

## Cc1nc(N2CCC3(CC2)COC(C)C3N)c(CO)nc1Sc1ccnc(N)c1Cl (centres undefined)
Compound 0.00949 µM
  viability, T/C: 96.6% and 103% and 111%
Compound 0.03 µM
  viability, T/C: 96.7% and 113% and 106%
Compound 0.0949 µM
  viability, T/C: 96.6% and 108% and 102%
Compound 0.3 µM
  viability, T/C: 99.3% and 106% and 105%
Compound 0.949 µM
  viability, T/C: 91.7% (2×) and 88.5%
Compound 3 µM
  viability, T/C: 67.1% and 75.8% and 68.5%
Curve of compound
  IC50: > 3000 nM
